Experimental data published in US11718645B2, “Macrocyclic therapeutic agents, methods of manufacture, and methods of treatment” (University of Florida Research Foundation, Incorporated, priority 2014, dated 2023).

Key:
[1] = Cellular stability in HCT116 cell lysate; format: in vitro ADME, human; details: HCT116 protein lysate 0.7 mg/mL, up to 24 h, FIG. 2D
Procedure: Aliquots of HCT116 cell lysates were diluted with 25 mM Tris-HCl buffer, pH 8.0, to give a final reaction volume of 100 μL and protein concentration of 0.7 mg/mL. Cell lysate solutions were incubated with 10 μL of apratoxin A, BK, BL, BM, or BN (25 μg/mL) for 0.25 min to 24 h (nine time points). Remaining apratoxin A, BK, BL, BM, or BN were extracted from the reaction solution at the end of the incubation periods with ethyl acetate using the same procedure as described for the plasma stability assay.
(§1) Analysis of apratoxin A, S4 (BK), S7 (BL), S8 (BM) and S9 (BN) was done by using HPLC-MS [column, Onyx Monolithic C18 (3.0×100 mm), Phenomenex (Torrance, Calif.); solvent, water (solvent A) acetonitrile (solvent B); flow rate, 0.5 ml/min; detection by electrospray ionization-MS in positive ion mode (MRM scan)]. A stepwise gradient elution was used starting at 60% B and 40% A, then increasing to 80% B at 5 min and maintained at this condition for 5 min. Parameters were optimized before analysis by using direct syringe infusion. The retention times (tR, min; MRM ion pair) of the analytes and internal standard are as follows: harmine (2.2; 213.1→169.9), apratoxin A (4.7; 841.4→445.2), apratoxin S4 (BK) (4.1; 828.5→432.2), apratoxin S7 (BL) (4.05; 814.5→418.2), apratoxin S8 (BM) (5.2; 842.5→446.2), apratoxin S9 (BN) (4.9; 828.5→432.2). Compound-dependent parameters used were as follows: apratoxin A, declustering potential (DP) 51, entrance potential (EP) 12, collision energy (CE) 45, collision cell exit potential (CXP) 6, collision cell entrance potential (CEP) 32; and harmine, DP 56.0, EP 4.5, CE 44.0, CXP 5, CEP 16.0. Source gas parameters used were as follows: curtain gas, 15.0; collision gas low, ionspray voltage 5500; temperature, 600.0; ion source gas 150.0; ion source gas 2 60.0.
(§2) Calibration curves for apratoxin A, S4 (BK), S7 (BL), S8 (BM) and S9 (BN) in the presence of mouse serum, HCT116 cell lysates, and aqueous solutions were generated by least-square linear regression analysis of the analyte peak area and internal standard peak area ratio against the nominal concentration of the standard solutions. A linear regression analysis was performed, and the concentration of remaining apratoxins at each time point was determined through interpolation for plasma, cellular, and aqueous stability experiments. The amount of remaining apratoxins with microsome incubation was determined from the peak area ratio of apratoxins at tx (3 min to 3 h) and t0. All calculations were done by using Analyst 1.4.2 (Applied Biosystems) Quantitate Mode.

[2] = Microsomal stability; format: in vitro ADME, mouse
Procedure: HPLC-MS was done on a 3200 QTRAP (Applied Biosystems) equipped with a Shimadzu (Kyoto, Japan) UFLC System. Mouse serum and harmine were purchased from Sigma-Aldrich. Pooled CD1 mouse liver (female) microsomes were purchased from XenoTech, LCC (Lenexa, Kans.) with protein concentrations of 0.5 mg/ml. HCT116 cell lysates were prepared with PhosphoSafe lysis buffer (Novagen). Protein concentration was determined by using the BCA Assay. Analysis was carried out similarly as previously described [Liu, Y.; Salvador, L. A.; Byeon, S.; Ying, Y.; Kwan, J. C.; Law, B. K.; Hong, J.; Luesch. H. J. Pharmacol. Exp. Ther. 2010, 335, 351-361].
The stability of apratoxin A, S4 (BK), S7 (BL), S8 (BM) and S9 (BN) in the presence of mouse microsomes was determined by using an adaptation of a published procedure [Ackley, D. C.; Rockich, K. T.; Baker, T. R. Optimization in Drug Discovery: In Vitro Methods (Series: Methods in Pharmacology and Toxicology) (eds Yan Z, Caldwell J W) 2004, pp 151-162, Springer, New Jersey]. In brief, microsomes were added to prewarmed phosphate buffer (100 mM, pH 7.4) at 37° C. Apratoxin A, BK, BL, BM, or BN (3 μL) were added to the microsomal preparation followed by NADPH cofactor solution (1.3 mM NADP, 3.3 mM glucose 6-phosphate, 0.4 U/mL glucose-6-phosphate dehydrogenase, 3.3 mM MgCl2). The reaction was allowed to proceed for 3 min to 3 h (7 time points) at 37° C. (thermomixer, 1050 rpm). The reaction was quenched by addition of ethyl acetate and subsequently spiked with harmine. The zero time point was defined by denaturing the microsomes with ethyl acetate before the addition of apratoxins. Incubation of apratoxins with microsomes alone was also performed following the same procedure to determine NADPH-dependent metabolism. The final concentration of the incubation mixture contained 0.5 mg/ml protein concentration and 1 μM apratoxins.
as §1, §2

[3] = tested on: met proto-oncogene (MET) receptor; test: Immunoblot analysis for RTK (MET) levels in HCT116 cells; format: cell-based, human; details: for activity compared with apratoxin S4 (BK) in all biological assays: HCT116, MET levels, cell viability, VEGF-A secretion
Procedure: HCT116 cells were seeded in 6-well plates at a density of 4×10^5 cells and the next day treated with various concentrations of apratoxins or solvent control. 24 h later, whole cell lysates were collected using PhosphoSafe buffer (EMD Chemicals, Inc, Gibbstown, N.J.). The protein concentration was measured with the BCA Protein Assay kit (Thermo Fisher Scientific, Rockford, Ill.). Lysates containing equal amounts of protein were separated by SDS polyacrylamide gel electrophoresis (4-12%), transferred to polyvinylidene difluoride membranes, probed with primary and secondary antibodies, and detected with the SuperSignal West Femto Maximum Sensitivity Substrate (Thermo Fisher Scientific). Anti-Met and secondary anti-mouse antibodies were from Cell Signaling Technology, Inc. (Danvers, Mass.).

[4] = tested on: VEGF-A secretion; test: Measurement of VEGF-A production (alphaLISA) in HCT116 culture supernatants; format: cell-based, human; details: for IC50: determined after 12 h (n = 3)
Procedure: Human colon adenocarcinoma HCT116 cells were purchased from ATCC (Manassas, Va.) and cultured in Dulbecco's modified Eagle's medium (Invitrogen, Carlsbad, Calif.) supplemented with 10% fetal bovine serum (HyClone, Logan, Utah) at 37° C. humidified air and 5% CO2.
HCT116 cells (1×10^4 cells per well) were seeded in 96-well plates and one day later treated with various concentrations of apratoxins or solvent control. After 12 h of incubation, culture supernatants were collected for detection of VEGF-A by using an alphaLISA kit (PerkinElmer, Waltham, Mass.) following the manufacturer's instructions. Briefly, acceptor bead and anti-VEGF antibody were incubated first with the supernatants for 60 min, donor beads were added later and incubated for another 30 min and then VEGF-A levels detected using Envision (PerkinElmer).

Structure (SMILES)	cellular stability [1]	% remaining ([2]; microsomes + NADPH, 0 min) [%]	% remaining ([2]; microsomes + NADPH, 3 min) [%]	% remaining ([2]; microsomes + NADPH, 5 min) [%]	% remaining ([2]; microsomes + NADPH, 15 min) [%]	% remaining ([2]; microsomes + NADPH, 30 min) [%]	% remaining ([2]; microsomes + NADPH, 60 min) [%]	% remaining ([2]; microsomes + NADPH, 120 min) [%]	% remaining ([2]; microsomes only, 0 min) [%]	% remaining ([2]; microsomes only, 3 min) [%]	% remaining ([2]; microsomes only, 5 min) [%]	% remaining ([2]; microsomes only, 15 min) [%]	% remaining ([2]; microsomes only, 30 min) [%]	% remaining ([2]; microsomes only, 60 min) [%]	% remaining ([2]; microsomes only, 120 min) [%]	activity compared with apratoxin S4 (BK) in all biological assays [3]	IC50 [4] [nM]	potency in reducing levels of MET receptor ([3]; HCT116, immunoblot, 24 h, FIG. 1)	potency relative to the other apratoxins, MET levels ([3]; HCT116, immunoblot, FIG. 1)	potency relative to the other apratoxins, VEGF-A secretion [4]
CC[C@H](C)[C@H]1C(=O)N2CCC[C@@H]2C(=O)O[C@H](C(C)(C)C)C[C@@H](C)C[C@H](O)CC2=N[C@@H](CCC(=O)N[C@@H](Cc3ccc(OC)cc3)C(=O)N(C)[C@@H](C)C(=O)N1C)CS2 [apratoxin S7 (BL), Apratoxin S7]	excellent	100	54.95 ± 4.74	18.70 ± 1.41	52.40 ± 2.40	6.10 ± 1.96	5.41 ± 1.09	4.30 ± 0.82	100	66.60 ± 12.30	60.50 ± 2.26	76.55 ± 9.55	54.80 ± 1.56	54.50 ± 0.00	53.85 ± 9.40	retained potent activity	0.3			
CC[C@H](C)[C@H]1C(=O)N2CCC[C@@H]2C(=O)O[C@H](C(C)(C)C)C[C@@H](C)C[C@H](O)C(C)(C)C2=N[C@@H](CCC(=O)N[C@@H](Cc3ccc(OC)cc3)C(=O)N(C)[C@@H](C)C(=O)N1C)CS2 [apratoxin S8 (BM), Apratoxin S8]	excellent	100	37.20 ± 1.27	17.30 ± 2.55	8.28 ± 2.86	4.83 ± 1.05	3.55 ± 0.91	5.01 ± 0.23	100	74.10 ± 9.62	77.45 ± 3.18	63.45 ± 3.61	74.75 ± 8.70	81.25 ± 1.91	70.05 ± 0.78	retained potent activity	0.47			
CC[C@H](C)[C@H]1C(=O)N2CCC[C@@H]2C(=O)O[C@H](C(C)(C)C)C[C@@H](C)C[C@H](O)[C@H](C)C2=N[C@H](CCC(=O)N[C@@H](Cc3ccc(OC)cc3)C(=O)N(C)[C@@H](C)C(=O)N1C)CS2 [apratoxin S9 (BN), Apratoxin S9]	excellent	100	51.40 ± 8.06	17.80 ± 0.28	3.55 ± 0.25	3.73 ± 0.25	6.06 ± 2.40	5.63 ± 0.18	100	83.10 ± 0.42	71.40 ± 1.27	45.25 ± 5.30	56.05 ± 1.06	48.45 ± 0.92	56.25 ± 0.21	retained potent activity	0.12	superior, picomolar (sub-nanomolar) potency	2-3 fold	2-3 fold
